# Key:
# Experiment in all cases: relative viability (nuclei count vs DMSO), 5 days (fraction); higher = more cells survive
# [1] = compound: C#Cc1cccc(Nc2ncnc3cc(OCCOC)c(OCCOC)cc23)c1 [Erlotinib] + COc1cccc2cc(-c3nc([C@H]4CC[C@H](C(=O)O)CC4)n4ncnc(N)c34)[nH]c12 [OSI-027] (partner 0.5 µM)
# Procedure, shortened: (§1)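 Five library-drug doses in √10 steps were combined with a fixed anchor-drug dose, or a single drug was given alone, by pin tool to lung cancer cell lines in 1536-well plates the day after seeding. Nuclei were stained and counted after 5 days. Relative viability is the nuclei count in treated wells over that in vehicle wells, taken as the median of duplicate plates.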
# [2] = compound: C#Cc1cccc(Nc2ncnc3cc(OCCOC)c(OCCOC)cc23)c1 [Erlotinib] + Nc1ncn([C@H]2C[C@H](O)[C@@H](CO)O2)c(=O)n1 [Decitabine] (partner 2 µM)
# Procedure, shortened: as §1
# [3] = compound: O=C(Nc1c[nH]nc1-c1nc2ccc(CN3CCOCC3)cc2[nH]1)NC1CC1 [AT9283] + C[C@@H](Oc1cc(-c2cnn(C3CCNCC3)c2)cnc1N)c1c(Cl)ccc(F)c1Cl [Crizotinib] (partner 1 µM)
# Procedure, shortened: as §1
# [4] = compound: O=C(Nc1c[nH]nc1-c1nc2ccc(CN3CCOCC3)cc2[nH]1)NC1CC1 [AT9283] + Cc1nc(Nc2ncc(C(=O)Nc3c(C)cccc3Cl)s2)cc(N2CCN(CCO)CC2)n1 [Dasatinib] (partner 0.075 µM)
# Procedure, shortened: as §1
# [5] = compound: O=C(Nc1c[nH]nc1-c1nc2ccc(CN3CCOCC3)cc2[nH]1)NC1CC1 [AT9283] + N=C(N)NC(=N)NCCc1ccccc1 [Phenformin] (partner 250 µM)
# Procedure, shortened: as §1
cell line,measurement,setting,value
NCI-H441,relative viability,[1]; first compound 0.02 µM,0.603
same,relative viability,[1]; first compound 0.6325 µM,0.535
same,relative viability,[1]; first compound 2 µM,0.355
same,relative viability,[2]; first compound 0.02 µM,0.232
same,relative viability,[2]; first compound 0.2 µM,0.26
same,relative viability,[2]; first compound 0.6325 µM,0.215
same,relative viability,[2]; first compound 2 µM,0.257
same,relative viability,[3]; first compound 0.003 µM,0.614
same,relative viability,[3]; first compound 0.03 µM,0.635
same,relative viability,[3]; first compound 0.09487 µM,0.35
same,relative viability,[3]; first compound 0.3 µM,0.234
same,relative viability,[4]; first compound 0.003 µM,0.567
same,relative viability,[4]; first compound 0.03 µM,0.49
same,relative viability,[4]; first compound 0.09487 µM,0.318
same,relative viability,[4]; first compound 0.3 µM,0.209
same,relative viability,[5]; first compound 0.003 µM,0.858
same,relative viability,[5]; first compound 0.03 µM,0.853
same,relative viability,[5]; first compound 0.09487 µM,0.286
same,relative viability,[5]; first compound 0.3 µM,0.244
